{
  "source": "patent US6410250B1",
  "about": "(priority 1996, dated 2002)",
  "key": {"[1]": {"test_system": "Starch-elicited peritoneal macrophages", "experiment": "Infection of starch-elicited peritoneal macrophages in vitro", "format": "cell-based, mouse", "conditions": "thymidine 100 μg/ml added to the medium"}, "[2]": {"experiment": "In vivo rescue of dhfr-ts- phenotype with thymidine osmotic pumps", "parameters": "species or system mice", "conditions": "continuous thymidine supplementation"}, "[3]": {"test_system": "draining lymph node cells", "format": "cell-based, mouse"}, "[4]": {"test_system": "L. major", "experiment": "Growth of L. major promastigotes in liquid medium with drug", "format": "cell-based, Leishmania major"}},
  "note": "Entries after “also recorded” stand apart in the source; their conditions may differ.",
  "data": [
    {"molecule": "Cc1cn([C@H]2C[C@H](O)[C@@H](CO)O2)c(=O)[nH]c1=O", "note": "[thymidine]", "values": [
      {"measurement": "effect of thymidine on dhfr-ts^− in macrophages", "setting": "[1]", "value": "restored both survival and replication"},
      {"measurement": "restoration of animal infectivity of dhfr-ts^− by thymidine supplementation", "setting": "[2]", "value": "partially restored; also recorded: partially restore infectivity"}
    ]},
    {"molecule": "bacillus Calmette-Guerin", "values": [
      {"measurement": "proliferation as [3H]thymidine incorporation", "setting": "[3]", "value": "1100±1000", "unit": "cpm"}
    ]},
    {"molecule": "CN(Cc1cnc2nc(N)nc(N)c2n1)c1ccc(C(=O)N[C@@H](CCC(=O)O)C(=O)O)cc1", "note": "[MTX, methotrexate]", "values": [
      {"measurement": "EC50", "setting": "[4]; Leishmania major, wild-type or heterozygous (+/HYG) cells, liquid media, read-out: concentration of MTX required to inhibit cell growth by 50% (EC50)", "value": "~1000", "unit": "nM"},
      {"measurement": "growth in presence of MTX", "setting": "[4]; dhfr-ts^− NEO/HYG knockout, 100 μM MTX, liquid media", "value": "grew well"}
    ]},
    {"molecule": "CN[C@H]1C[C@@H](N)[C@H](O)[C@@H](O[C@@H]2O[C@H](CO)[C@H](O)[C@@H]3OC4(O[C@H]23)O[C@H]([C@@H](N)CO)[C@H](O)[C@H](O)[C@H]4O)[C@@H]1O", "note": "(stereo partly shown) [hygromycin B]", "values": [
      {"measurement": "hygromycin B concentration resulting in a 50% reduction in growth", "setting": "[4]; +/HYG line", "value": 200, "unit": "μg per ml"}
    ]},
    {"molecule": "ovalbumin (protein, UniProt P01012 2-386, looked up, antigen preparation used as specificity control in lymph node proliferation assay) Ovalbumin: GSIGAASMEFCFDVFKELKVHHANENIFYCPIAIMSALAMVYLGAKDSTRTQINKVVRFDKLPGFGDSIEAQCGTSVNVHSSLRDILNQITKPNDVYSFSLASRLYAEERYPILPEYLQCVKELYRGGLEPINFQTAADQARELINSWVESQTNGIIRNVLQPSSVDSQTAMVLVNAIVFKGLWEKAFKDEDTQAMPFRVTEQESKPVQMMYQIGLFRVASMASEKMKILELPFASGTMSMLVLLPDEVSGLEQLESIINFEKLTEWTSSNVMEERKIKVYLPRMKMEEKYNLTSVLMAMGITDVFSSSANLSGISSAESLKISQAVHAAHAEINEAGREVVGSAEAGVDAASVSEEFRADHPFLFCIKHIATNAVLFFGRCVSP", "values": [
      {"measurement": "proliferation as [3H]thymidine incorporation", "setting": "[3]", "value": "2600±1100", "unit": "cpm"}
    ]}
  ]
}
